Laboratory results: article PMC5775429, “LY2087101 and dFBr share transmembrane binding sites in the (α4)3(β2)2 Nicotinic Acetylcholine Receptor” (Scientific Reports, 2018)
Values joined by “and” are separate entries in the source; they are usually repeats but may differ in a detail not shown here. Identical values can stand only once. Like-named read-outs stand apart in the source and are kept apart here. Marks after values point to notes of the source that are not given here.

Tests used:
[1] = target: (α4R148E)3(β2)2 nAChR (Homo sapiens, UniProt P43681, R148E); design: method as in PMID 28446611; conditions: 10 µM ACh + 1 µM dFBr vs 10 µM ACh alone; data reported previously ref 29; cited from earlier work
[2] = target: T1, (α4I607T)3(β2)2 nAChR (Homo sapiens, UniProt P17787+P43681, I607T); assay: Two-electrode voltage-clamp of ACh-induced currents in Xenopus oocytes; format: cell-based; conditions: for R, potentiation ratio (PR): 10 µM ACh + 1 µM PAM vs 10 µM ACh alone
T1 construct: expressed in transfected cells; host or cells: Xenopus laevis oocytes injected with cRNA
Procedure: (§1) For amino acid substitutions within the α4 nAChR subunit, point mutations were introduced into pSP64ployA plasmid with cDNA encoding for human α4 nAChR subunit with mutagenic primer pairs using the Quick Change II Site-Directed Mutagenesis Kit (Agilent Technologies) then confirmed by DNA sequencing (GENEWIZ, LLC, South Plainfield, NJ). cRNA transcripts suitable for oocyte expression were prepared in vitro from linearized plasmids [α3 (BamH1), α4 (AseI), β2 (PvuII), β4 (XhoI)] using mMESSAGE mMACHINE high yield capped RNA transcription kits (Ambion) and purified on NucAway Spin column (Invitrogen). cRNA concentration was determined by spectroscopy (Concentration (ug/ul) = Abs260 * 40), aliquoted and stored at −80 °C until used.
(§2) Ovarian lobules were surgically harvested from oocytes-positive female Xenopus laevis (NASCO, Fort Atkinson, WI) according to an animal use protocol approved by the Texas A&M Health Sciences Center Institutional Animals Care and Use Committee. The Texas A&M Health Sciences Center Research Facility is registered as an animal research facility with the United States Department of Agriculture and is fully accredited by the American Association for Accreditation of Laboratory Animal Care (AAALAC). For oocytes defolliculation, ovarian lobes were treated with 3 mg/ml collagenase type 2 (Worthington Biomedical, Lakewood, NJ) in Ca + 2-free buffer (85 mM NaCl, 2.5 mM KCl, 1 mM MgCl2, 5 mM HEPES, pH 7.6). Collagenase treatment was allowed to proceed for 3 hours at room temperature with gentle shaking then oocytes were washed several times with buffer to remove collagenase then with ND96-gentamicine buffer. Healthy Stage V and VI oocytes were visually selected and maintained at 18 °C in modified ND96-gentamicine buffer (96 mM NaCl, 2 mM KCl, 1.8 mM CaCl2, 1 mM MgCl2, 5 mM HEPES, 50 µg/ml gentamicin, pH 7.6). Oocytes were injected with 50–100 ng of the desired nAChR subunits cRNA mix at ratios of 8α:1β or 1α:8β to express nAChRs with subunit stoichiometries of 3α:2β (low agonist sensitivity) or 2α:3β (high agonist sensitivity), respectively.
(§3) Oocytes were continuously perfused with recording buffer (100 mM NaCl, 2 mM KCl, 1 mM CaCl2, 0.8 mM MgCl2, 1 mM EGTA, 10 mM Hepes, pH 7.5) except during periods of drug applications.

[3] = target: T2, (α4V609A)3(β2)2 nAChR (Homo sapiens, UniProt P17787+P43681, V609A); assay: as above; format: cell-based; conditions: for R, potentiation ratio (PR): 10 µM ACh + 1 µM PAM vs 10 µM ACh alone
T2 construct: expressed in transfected cells; host or cells: Xenopus laevis oocytes injected with cRNA
Procedure: as §1, §2, §3

[4] = target: (α4S258M)3(β2)2 nAChR (Homo sapiens, UniProt P43681, S258M); assay: as above; format: cell-based; conditions: for R, potentiation ratio (PR): 10 µM ACh + 1 µM PAM vs 10 µM ACh alone
Procedure: as §1, §2, §3

[5] = target: T3, (α4T313C)3(β2)2 nAChR (Homo sapiens, UniProt P17787+P43681, T313C); assay: as above; format: cell-based; conditions: for R, potentiation ratio (PR): 10 µM ACh + 1 µM PAM vs 10 µM ACh alone
T3 construct: expressed in transfected cells; host or cells: Xenopus laevis oocytes injected with cRNA
Procedure: as §1, §2, §3

[6] = target: T4, (α4F312V)3(β2)2 nAChR (Homo sapiens, UniProt P17787+P43681, F312V); assay: as above; format: cell-based; conditions: for R, potentiation ratio (PR): 10 µM ACh + 1 µM PAM vs 10 µM ACh alone
T4 construct: expressed in transfected cells; host or cells: Xenopus laevis oocytes injected with cRNA
Procedure: as §1, §2, §3

[7] = target: (α4F316L)3(β2)2 nAChR (Homo sapiens, UniProt P43681, F316L); assay: as above; format: cell-based; conditions: for R, potentiation ratio (PR): 10 µM ACh + 1 µM PAM vs 10 µM ACh alone
Procedure: as §1, §2, §3

[8] = target: T5, (α4T261D)3(β2)2 nAChR (Homo sapiens, UniProt P17787+P43681, T261D); assay: as above; format: cell-based; conditions: for R, potentiation ratio (PR): 10 µM ACh + 1 µM PAM vs 10 µM ACh alone
T5 construct: expressed in transfected cells; host or cells: Xenopus laevis oocytes injected with cRNA
Procedure: as §1, §2, §3

[9] = target: (α4C259F)3(β2)2 nAChR (Homo sapiens, UniProt P43681, C259F); assay: as above; format: cell-based; conditions: 10 µM ACh + 1 µM PAM vs 10 µM ACh alone
Procedure: as §1, §2, §3

[10] = target: T6, α4β2 nAChR (Homo sapiens, UniProt P17787+P43681); assay: as above; format: cell-based; conditions: 1 μM PAM
T6 construct: expressed in transfected cells; host or cells: Xenopus laevis oocytes injected with cRNA
Procedure: (§4) Next, Xenopus oocytes were injected with RNA mixes of […], α3:β4, […], or α4:β4 at ratios of 8:1, 1:1, or 1:8 to express nAChRs with different subunit composition and with various α:β ratios.
as §2, §3

[11] = target: T7, α4β4 nAChR (Homo sapiens, UniProt P30926+P43681); assay: as above; format: cell-based; conditions: 1 μM PAM
T7 construct: expressed in transfected cells; host or cells: Xenopus laevis oocytes injected with cRNA
Procedure: as §4, §2, §3

[12] = target: T8, (α4)2(β2)3 nAChR (Homo sapiens, UniProt P17787+P43681); conditions: cited from earlier work
T8 construct: expressed in transfected cells; host or cells: Xenopus laevis oocytes injected with cRNA

[13] = target: (α4E92I)3(β2)2 nAChR (Homo sapiens, UniProt P43681, E92I); design: method as in PMID 28446611; conditions: 10 µM ACh + 1 µM dFBr vs 10 µM ACh alone; data reported previously ref 29; cited from earlier work
[14] = system: animal model; design: method as in PMID 23712602, PMID 28446611, PMID 28809075, PMID 28105008; conditions: cited from earlier work
[15] = target: T9, (α4)3(β2)2 nAChR (Homo sapiens, UniProt P17787+P43681); assay: Two-electrode voltage-clamp of ACh-induced currents in Xenopus oocytes; format: cell-based; conditions: for R, potentiation ratio (PR): 10 µM ACh + 1 µM PAM vs 10 µM ACh alone
T9 construct: expressed in transfected cells; host or cells: Xenopus laevis oocytes injected with cRNA
Procedure: To begin to characterize LY2087101 interaction with the heteropentameric α4β2 nAChRs, we examined the selectivity of LY2087101 for the two α4β2 nAChR isoforms; high-agonist sensitivity (α4)2(β2)3 and low-agonist sensitivity (α4)3(β2)2 nAChRs. Xenopus oocytes were injected with α4 and β2 subunits RNAs at ratios 8:1 and 1:8 to favor expression of (α4)3(β2)2 and (α4)2(β2)3 nAChRs, respectively.
as §2, §3

[16] = ACh concentration-response curve, normalized to 1 mM ACh alone
[17] = read-out: dFBr potentiation EC50
[18] = normalized to peak current by 10 µM ACh alone, curve fit
[19] = read-out: LY2087101 potentiation EC50
[20] = normalized to 10 µM ACh alone, not from curve fitting, maximum seen at any concentration up to 10 µM LY2087101

T1 sequence (P43681 29-627 I607T limits assumed): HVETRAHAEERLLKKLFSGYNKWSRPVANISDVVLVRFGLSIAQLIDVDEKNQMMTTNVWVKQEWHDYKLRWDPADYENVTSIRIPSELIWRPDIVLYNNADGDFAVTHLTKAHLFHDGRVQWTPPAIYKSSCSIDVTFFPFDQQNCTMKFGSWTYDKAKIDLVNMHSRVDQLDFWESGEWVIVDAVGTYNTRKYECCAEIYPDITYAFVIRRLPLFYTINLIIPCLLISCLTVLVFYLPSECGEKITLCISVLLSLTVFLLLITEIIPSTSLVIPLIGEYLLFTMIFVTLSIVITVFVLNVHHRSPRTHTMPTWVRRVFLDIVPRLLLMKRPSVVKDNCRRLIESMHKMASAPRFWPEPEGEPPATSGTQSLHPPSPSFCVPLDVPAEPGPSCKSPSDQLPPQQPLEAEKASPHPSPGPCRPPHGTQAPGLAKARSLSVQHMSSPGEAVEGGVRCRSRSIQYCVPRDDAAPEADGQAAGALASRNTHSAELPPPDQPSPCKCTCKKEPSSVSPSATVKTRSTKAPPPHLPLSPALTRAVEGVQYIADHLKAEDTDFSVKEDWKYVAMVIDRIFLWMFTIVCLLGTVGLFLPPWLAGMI
T1 sequence (P17787 26-502): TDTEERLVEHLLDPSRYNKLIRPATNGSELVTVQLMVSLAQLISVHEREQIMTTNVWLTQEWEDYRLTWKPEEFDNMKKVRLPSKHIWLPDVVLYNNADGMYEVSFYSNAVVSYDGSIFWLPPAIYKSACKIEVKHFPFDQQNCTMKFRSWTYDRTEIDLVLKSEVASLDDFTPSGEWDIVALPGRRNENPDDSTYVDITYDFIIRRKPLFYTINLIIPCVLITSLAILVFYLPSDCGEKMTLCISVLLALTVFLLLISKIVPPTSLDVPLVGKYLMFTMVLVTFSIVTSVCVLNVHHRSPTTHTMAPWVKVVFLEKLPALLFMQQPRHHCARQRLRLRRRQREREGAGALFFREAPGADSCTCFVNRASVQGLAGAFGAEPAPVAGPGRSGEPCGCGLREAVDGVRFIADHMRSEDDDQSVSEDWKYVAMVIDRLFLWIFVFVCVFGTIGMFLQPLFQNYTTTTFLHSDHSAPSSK
T3 sequence (P43681 29-627 T313C limits assumed): as the sequence (P43681 29-627 I607T limits assumed) above, with T285C, T579I counted along it
T3 sequence (P17787 26-502): as the sequence (P17787 26-502) above
T2 sequence (P43681 29-627 V609A limits assumed): as the sequence (P43681 29-627 I607T limits assumed) above, with T579I, V581A counted along it
T2 sequence (P17787 26-502): as the sequence (P17787 26-502) above
Chain of (α4S258M)3(β2)2 nAChR (P43681 29-627 S258M limits assumed): as the sequence (P43681 29-627 I607T limits assumed) above, with S230M, T579I counted along it
Chain of (α4S258M)3(β2)2 nAChR (P17787 26-502 partner): as the sequence (P17787 26-502) above
T4 sequence (P43681 29-627 F312V limits assumed): as the sequence (P43681 29-627 I607T limits assumed) above, with F284V, T579I counted along it
T4 sequence (P17787 26-502): as the sequence (P17787 26-502) above
Chain of (α4F316L)3(β2)2 nAChR (P43681 29-627 F316L limits assumed): as the sequence (P43681 29-627 I607T limits assumed) above, with F288L, T579I counted along it
Chain of (α4F316L)3(β2)2 nAChR (P17787 26-502 partner): as the sequence (P17787 26-502) above
T5 sequence (P43681 29-627 T261D limits assumed): as the sequence (P43681 29-627 I607T limits assumed) above, with T233D, T579I counted along it
T5 sequence (P17787 26-502): as the sequence (P17787 26-502) above
T9 sequence (P43681 29-627 limits assumed): as the sequence (P43681 29-627 I607T limits assumed) above, with T579I counted along it
T9 sequence (P17787 26-502): as the sequence (P17787 26-502) above
T8 sequence (P43681 29-627 limits assumed): as the sequence (P43681 29-627 I607T limits assumed) above, with T579I counted along it
T8 sequence (P17787 26-502): as the sequence (P17787 26-502) above
T7 sequence (P43681 29-627 limits assumed): as the sequence (P43681 29-627 I607T limits assumed) above, with T579I counted along it
T7 sequence (P30926 22-498): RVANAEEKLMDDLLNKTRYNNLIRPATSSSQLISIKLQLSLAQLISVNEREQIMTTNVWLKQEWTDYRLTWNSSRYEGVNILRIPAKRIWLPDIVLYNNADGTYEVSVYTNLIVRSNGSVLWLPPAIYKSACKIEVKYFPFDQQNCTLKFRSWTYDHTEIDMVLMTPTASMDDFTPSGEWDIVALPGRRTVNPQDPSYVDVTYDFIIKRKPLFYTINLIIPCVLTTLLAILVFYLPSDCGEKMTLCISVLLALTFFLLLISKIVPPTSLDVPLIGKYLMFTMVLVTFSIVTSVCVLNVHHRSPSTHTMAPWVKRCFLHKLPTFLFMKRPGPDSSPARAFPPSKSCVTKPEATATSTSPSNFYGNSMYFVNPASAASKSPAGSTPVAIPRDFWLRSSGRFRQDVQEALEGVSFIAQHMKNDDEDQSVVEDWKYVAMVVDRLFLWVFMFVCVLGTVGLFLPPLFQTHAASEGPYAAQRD
T6 sequence (P43681 29-627 limits assumed): as the sequence (P43681 29-627 I607T limits assumed) above, with T579I counted along it
T6 sequence (P17787 26-502): as the sequence (P17787 26-502) above
Chain of (α4C259F)3(β2)2 nAChR (P43681 29-627 C259F limits assumed): as the sequence (P43681 29-627 I607T limits assumed) above, with C231F, T579I counted along it
Chain of (α4C259F)3(β2)2 nAChR (P17787 26-502 partner): as the sequence (P17787 26-502) above
Chain of (α4E92I)3(β2)2 nAChR (P43681 29-627 E92I limits assumed): as the sequence (P43681 29-627 I607T limits assumed) above, with E64I, T579I counted along it
Chain of (α4E92I)3(β2)2 nAChR (P17787 26-502 partner): as the sequence (P17787 26-502) above
Chain of (α4R148E)3(β2)2 nAChR (P43681 29-627 R148E limits assumed): as the sequence (P43681 29-627 I607T limits assumed) above, with R120E, T579I counted along it
Chain of (α4R148E)3(β2)2 nAChR (P17787 26-502 partner): as the sequence (P17787 26-502) above

Compound: C=CC(C)(C)c1[nH]c2cc(Br)ccc2c1CCNC [dFBr]
- R, potentiation ratio (PR) [1]: 10.3 ± 2.4^a
- R, potentiation ratio (PR) [2]: 4.7 ± 2.1
- R, potentiation ratio (PR) [3]: 3.2 ± 0.2
- R, potentiation ratio (PR) [4]: 5.0 ± 0.5
- R, potentiation ratio (PR) [5]: 3.9 ± 0.4
- R, potentiation ratio (PR) [6]: 1.2 and ~ 1.2 and 1.2 ± 0.1
- dFBr concentration-dependent potentiation of ACh-current responses ([6]; dFBr up to 10 µM, 10 μM ACh): did not potentiate
- R, potentiation ratio (PR) [7]: 1.2 and ~ 1.2 and 1.2 ± 0.1
- ACh Imax in the presence of 1 µM dFBr [7, 16]: 148 ± 12%
- dFBr concentration-dependent potentiation of ACh-current responses ([7]; dFBr up to 10 µM, 10 μM ACh): did not potentiate
- R, potentiation ratio (PR) [8]: ~ 2.1 and 2.1 ± 0.1
- R, potentiation ratio (PR) [9]: 3.1 ± 0.3
- potentiation of ACh responses [10]: potentiated
- potentiation of ACh responses [11]: did not potentiate
- increase in ACh efficacy (Imax) by dFBr ([12]; ACh concentration-response curve): ~ 4 fold
- dFBr maximal potentiation [12]: 300%
- EC50 [12, 17]: ~1000 nM
- R, potentiation ratio (PR) [13]: 9.3 ± 1.8^a
- nicotine withdrawal signs [14]: reverse nicotine withdrawal signs
- R, potentiation ratio (PR) ([15]; WT): 4.4 ± 0.2
- dFBr potentiation h (Hill coefficient) ([15]; co-applied with 10 μM ACh, WT): 1.1 ± 0.2
- dFBr potentiation Imax ([15]; normalized to 10 µM ACh alone, WT): 580 ± 42%
- EC50 [15, 17]: 1000 ± 300 nM

Compound: Cc1nc(Nc2ccc(F)cc2)sc1C(=O)c1ccsc1 [LY2087101, [2-[(4-Fluorophenyl)amino]-4-methyl-5-thiazolyl]-3-thienylmethanone]
- R, potentiation ratio (PR) [2]: 5.8 ± 0.7
- LY2087101 potentiation Imax% [2, 18]: 958 ± 32%
- EC50 [2, 19]: 800 ± 100 nM
- R, potentiation ratio (PR) [3]: 5.7 ± 1.1
- EC50 [3, 19]: 1000 ± 300 nM
- R, potentiation ratio (PR) [4]: 1.5 ± 0.2
- ACh Imax in the presence of 1 µM LY2087101 [4, 16]: 232 ± 10%
- LY2087101 potentiation Imax% [4, 20]: 254 ± 12%
- R, potentiation ratio (PR) [5]: 2.1 ± 0.2
- LY2087101 potentiation Imax% [5, 18]: 196 ± 23%
- EC50 [5, 19]: 700 ± 100 nM
- R, potentiation ratio (PR) [6]: 2.5 ± 0.2
- LY2087101 potentiation Imax% [6, 20]: 269 ± 43%
- EC50 [6, 19]: 100 ± 10 nM
- R, potentiation ratio (PR) [7]: 1.1 ± 0.1
- ACh Imax in the presence of 1 µM LY2087101 [7, 16]: 122 ± 13%
- R, potentiation ratio (PR) [8]: 1.6 ± 0.1
- ACh Imax in the presence of 1 µM LY2087101 [8, 16]: 180 ± 23%
- LY2087101 potentiation Imax% [8, 18]: 215 ± 29%
- EC50 [8, 19]: 2400 ± 1600 nM
- R, potentiation ratio (PR) [9]: 3.2 ± 0.4
- potentiation of ACh responses [10]: potentiated
- potentiation of ACh responses [11]: potentiated
- R, potentiation ratio (PR) ([15]; WT): 4.1 ± 0.3
- ACh Imax in the presence of 1 µM LY2087101 [15, 16]: 251 ± 19% and ~ 250%
- EC50 ([15]; co-applied with 10 µM ACh, LS WT, read-out: LY2087101 potentiation EC50): 1400 nM and 1000 to 2000 nM
